Several values for one entry are separate records, joined by “and”; a condition that tells them apart may be missing. Equal entries are not always repeated. Inconclusive results and toxic doses are left out. How the source made its calls: active means survival T/C of 150% or more; inactive means T/C below 125% in these data. Peptide text beside a SMILES is read from it. * marks the point of attachment. Trt = c1ccc(C(c2ccccc2)(c2ccccc2)*)cc1; Cbz = O=C(OCc1ccccc1)*; Bn = c1ccc(C*)cc1; βAla = NCCC(=O)O
Test system: B6C3F1 mice, ip Sarcoma M5076, median survival T/C
Assay: NCI In Vivo Anticancer Drug Screen. Data for tumor model Sarcoma M5076 (intraperitoneal) in B6C3F1 mice
Settings: endpoint: median survival time, higher = longer survival
Procedure, shortened: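 Tumour cells were transplanted into mice, compound or vehicle was given, survival of both groups was followed, and the treated figure was expressed over the control figure.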

[1] = dose: 75.0 mg/kg/injection, schedule: Q04DX004 (ip), vehicle: saline with Tween-80
[2] = dose: 150.0 mg/kg/injection, schedule: Q04DX004 (ip), vehicle: saline with Tween-80
[3] = dose: 75.0 mg/kg/injection, schedule: Q04DX004 (ip), vehicle: saline
[4] = dose: 50.0 mg/kg/injection, schedule: Q04DX004 (ip), vehicle: Klucel (hydroxypropylcellulose) (HPC)
[5] = dose: 100.0 mg/kg/injection, schedule: Q04DX004 (ip), vehicle: Klucel (hydroxypropylcellulose) (HPC)
[6] = dose: 200.0 mg/kg/injection, schedule: Q04DX004 (ip), vehicle: Klucel (hydroxypropylcellulose) (HPC)
[7] = dose: 400.0 mg/kg/injection, schedule: Q04DX004 (ip), vehicle: Klucel (hydroxypropylcellulose) (HPC)
[8] = dose: 800.0 mg/kg/injection, schedule: Q04DX004 (ip), vehicle: Klucel (hydroxypropylcellulose) (HPC)
[9] = dose: 6.25 mg/kg/injection, schedule: Q04DX004 (ip), vehicle: saline with Tween-80
[10] = dose: 12.5 mg/kg/injection, schedule: Q04DX004 (ip), vehicle: saline with Tween-80
[11] = dose: 25.0 mg/kg/injection, schedule: Q04DX004 (ip), vehicle: saline with Tween-80
[12] = dose: 50.0 mg/kg/injection, schedule: Q04DX004 (ip), vehicle: saline with Tween-80
[13] = dose: 100.0 mg/kg/injection, schedule: Q04DX004 (ip), vehicle: saline with Tween-80

Measured: T/C

Nc1nc(Br)nc2c1ncn2C1CC(O)C(CO)O1 (stereo not given)
inactive: dose: 7.5 mg/kg/injection, schedule: Q03HX009 (ip), vehicle: saline 102 % of control | dose: 15.0 mg/kg/injection, schedule: Q03HX009 (ip), vehicle: saline 118 % of control | dose: 30.0 mg/kg/injection, schedule: Q03HX009 (ip), vehicle: saline 109 % of control | dose: 60.0 mg/kg/injection, schedule: Q03HX009 (ip), vehicle: saline 116 % of control | dose: 120.0 mg/kg/injection, schedule: Q03HX009 (ip), vehicle: saline 113 % of control

Nc1nc2c(ncn2C2OC(CO)C(O)C2O)c(=O)[nH]1 (stereo not given)
inactive: [1] 107 % of control | [2] 114 % of control | dose: 300.0 mg/kg/injection, schedule: Q04DX004 (ip), vehicle: saline with Tween-80 114 % of control | dose: 600.0 mg/kg/injection, schedule: Q04DX004 (ip), vehicle: saline with Tween-80 114 % of control | dose: 1200.0 mg/kg/injection, schedule: Q04DX004 (ip), vehicle: saline with Tween-80 109 % of control

NC(Cn1ccc(=O)c(O)c1)C(=O)O (stereo not given)
inactive: [3] 100 % of control | dose: 150.0 mg/kg/injection, schedule: Q04DX004 (ip), vehicle: saline 109 % of control | dose: 300.0 mg/kg/injection, schedule: Q04DX004 (ip), vehicle: saline 103 % of control | dose: 600.0 mg/kg/injection, schedule: Q04DX004 (ip), vehicle: saline 118 % of control | dose: 1200.0 mg/kg/injection, schedule: Q04DX004 (ip), vehicle: saline 113 % of control

CC(C)(C)c1cc2c3c(c1)Oc1cc(C(C)(C)C)cc4c1C3(O)c1c(cc(C(C)(C)C)cc1O4)O2
inactive: dose: 6.25 mg/kg/injection, schedule: Q04DX004 (ip), vehicle: Klucel (hydroxypropylcellulose) (HPC) 111 % of control | dose: 9.0 mg/kg/injection, schedule: Q04DX004 (ip), vehicle: Klucel (hydroxypropylcellulose) (HPC) 113 % of control | dose: 12.5 mg/kg/injection, schedule: Q04DX004 (ip), vehicle: Klucel (hydroxypropylcellulose) (HPC) 113 % of control

CCC1C(C#N)C(=O)NC(=O)C1C#N (stereo not given)
inactive: [4] 104 % of control | [5] 106 % of control | [6] 107 % of control | [7] 104 % of control | [8] 110 % of control

CO[C@@]12[C@H](COC(N)=O)C3=C(C(=O)C(C)=C(N)C3=O)N1C[C@@H]1N[C@@H]12
inactive: dose: 0.25 mg/kg/injection, schedule: Q04DX004 (ip), vehicle: saline 106 % of control | dose: 0.5 mg/kg/injection, schedule: Q04DX004 (ip), vehicle: saline 120 % of control and 121 % of control

O=c1oc2c(O)c(O)cc3c(=O)oc4c(O)c(O)cc1c4c23
inactive: dose: 75.0 mg/kg/injection, schedule: Q04DX004 (ip), vehicle: Klucel (hydroxypropylcellulose) (HPC) 123 % of control | dose: 150.0 mg/kg/injection, schedule: Q04DX004 (ip), vehicle: Klucel (hydroxypropylcellulose) (HPC) 115 % of control | dose: 300.0 mg/kg/injection, schedule: Q04DX004 (ip), vehicle: Klucel (hydroxypropylcellulose) (HPC) 120 % of control | dose: 600.0 mg/kg/injection, schedule: Q04DX004 (ip), vehicle: Klucel (hydroxypropylcellulose) (HPC) 111 % of control | dose: 1200.0 mg/kg/injection, schedule: Q04DX004 (ip), vehicle: Klucel (hydroxypropylcellulose) (HPC) 108 % of control

CCN(CC)CCn1c2c(c3ccc(OC)cc31)CCN1CC3CC(OC(=O)c4cc(OC)c(OC)c(OC)c4)C(OC)C(C(=O)OC)C3CC21 (stereo not given)
inactive: dose: 25.0 mg/kg/injection, schedule: Q04DX004 (ip), vehicle: saline 105 % of control | dose: 50.0 mg/kg/injection, schedule: Q04DX004 (ip), vehicle: saline 97 % of control | dose: 100.0 mg/kg/injection, schedule: Q04DX004 (ip), vehicle: saline 97 % of control | dose: 200.0 mg/kg/injection, schedule: Q04DX004 (ip), vehicle: saline 86 % of control

CN(C)CCOCC(O)(c1ccccc1)c1ccccc1
inactive: dose: 37.5 mg/kg/injection, schedule: Q04DX004 (ip), vehicle: saline 100 % of control | [3] 100 % of control

O=c1c(-c2nn[nH]n2)cnc2sc3cc(Cl)ccc3n12
inactive: dose: 37.5 mg/kg/injection, schedule: Q04DX004 (ip), vehicle: saline with Tween-80 98 % of control | [1] 95 % of control | [2] 90 % of control

O=C/C(Cl)=C(/Cl)C(=O)O
inactive: [9] 92 % of control | [10] 104 % of control and 110 % of control | [11] 109 % of control and 119 % of control

CC1/C=C/C=C/CC/C=C/C=C/C=C/C=C/C(OC2OC(C)C(O)C(N)C2O)CC2OC(CC(O)C(O)CCC(O)CC(O)CC(O)CC(=O)OC(C)C(C)C1O)CC(O)C2C(=O)O (stereo not given)
inactive: [9] 122 % of control | [10] 117 % of control | [11] 118 % of control and 122 % of control | [12] 96 % of control and 97 % of control | [13] 96 % of control and 107 % of control

Cc1cc(Br)c2nsnc2c1[N+](=O)[O-]
inactive: [12] 96 % of control | [13] 112 % of control | dose: 200.0 mg/kg/injection, schedule: Q04DX004 (ip), vehicle: saline with Tween-80 104 % of control | dose: 400.0 mg/kg/injection, schedule: Q04DX004 (ip), vehicle: saline with Tween-80 103 % of control | dose: 800.0 mg/kg/injection, schedule: Q04DX004 (ip), vehicle: saline with Tween-80 87 % of control

COc1cccc2c1[C@H]1CO[C@H]3C4C[C@H](C(=O)O)C([C@@H](C2)N13)N4C (stereo not given in full)
inactive: dose: 0.62 mg/kg/injection, schedule: Q04DX004 (ip), vehicle: water 98 % of control | dose: 1.25 mg/kg/injection, schedule: Q04DX004 (ip), vehicle: water 100 % of control | dose: 2.5 mg/kg/injection, schedule: Q04DX004 (ip), vehicle: water 102 % of control | dose: 5.0 mg/kg/injection, schedule: Q04DX004 (ip), vehicle: water 109 % of control | dose: 10.0 mg/kg/injection, schedule: Q04DX004 (ip), vehicle: water 118 % of control

COC(=O)C(CSC(c1ccccc1)(c1ccccc1)c1ccccc1)NC(=O)C(CSCc1ccccc1)NC(=O)CCNC(=O)OCc1ccccc1 (stereo not given) ({Cbz-βAla}-Cys(Bn)-Cys(Trt)-OMe; configuration not given here)
inactive: [4] 102 % of control | [5] 97 % of control | [6] 106 % of control | [7] 89 % of control | [8] 107 % of control

COc1ncc(Br)cc1C(=O)NCCc1ccc(S(=O)(=O)NC(=O)NC2CCCCC2)cc1
inactive: [10] 100 % of control | [11] 102 % of control | [12] 100 % of control

Reference: PubChem BioAssay AID292 (DTP/NCI, 2004)
